The record followed here is a melting point compilation (Tetko et al.; mined from patent text by program, amines drawn as free bases though some values may be those of a salt).

Molecules are shown by their SMILES.

For orientation: melting point means the temperature, or range, at which the solid turns liquid. `COc1cc(C)c(CCCCCCCCCC(=O)CCCCCC(=O)O)c(O)c1OC`: the melting point was in the range of 55 to 57 °C.
The value for `CC1=NC(NC(=O)CCc2ccc(Cl)cc2Cl)C(=O)N(C)c2ccccc21` (centres undefined) was 194 to 195 °C; that for `Fc1cc(F)c(-c2c(Cl)nc3nccn3c2N2CCCCCC2)c(F)c1` was 106 to 108 °C.
Compound `O=C(CCl)Nc1ccc(NC(=O)CCl)c2c1C(=O)c1ccccc1C2=O` returned a melting point of 221 °C.
In turn, `O=C1N(CCCCN2CCN(c3n[nH]c4cc(F)ccc34)CC2)CSC12CCCCC2` came in with a melting point of 163 to 165 °C.
The value for `COCC(=O)Oc1ccc(C=CNC(C)=O)cc1` was 169 to 170 °C; that for `COc1cc(OC)nc(-n2cnc(N)n2)n1` was 219 °C.
The same measure for `CNC(=O)Nc1ccc(Cc2cc(C)c(C(=O)c3ccc(Cl)cc3)n2C)nc1`: 234 to 236 °C.
`COCCOc1ccc2ccc(NC(=O)c3ccc(OC)cc3)nc2n1` yielded a melting point of 114 °C.
The compound `CCOC(=O)c1ccc(N)cc1C(=O)OCC` registered a melting point of 95.6 °C.
Regarding `CS(=O)(=O)Nc1ccc(OCC2CCN(C(=O)OCc3ccccc3)CC2)cc1`, the melting point lay in the range of 150 to 151 °C.
The same measure for `Cc1cnc(CNC(=O)c2sc(-n3cnn(Cc4ccc(F)cc4)c3=O)nc2C)cn1`: 188 to 189 °C; for `CSc1ccc(Cc2sc(NC(C)=O)nc2CCc2ccc(NC(=N)N)cc2)cc1`: 160 to 161 °C.
The compound `CCCOc1ccc(-c2scc(-c3ccccc3OC(F)(F)F)c2CC(=O)N=C(N)N)cc1` yielded a melting point of 90 to 92 °C.
As to `CCOC(=O)c1nc(C)oc1C(=O)Cl`, the melting point lay within 103 to 105 °C.
The value for `COc1ccc2c(Cc3c(Cl)cncc3Cl)nnc(Oc3ccccc3)c2c1` was 130 to 132 °C.
With `Cc1nc2ccc(C(C)(C)CNC=O)cc2[nH]1`, the melting point is 57 to 60 °C.
The value for `CCNc1nnc2ccc(-c3cccc(N(C)C(C)=O)c3)nn12` was 225 to 227 °C; that for `COC(=O)Oc1ccc(F)cc1Br` was 75 to 78 °C; that for `Cc1ccc2c(O)c(CS(C)(=O)=O)cnc2c1` was 285 to 290 °C.
The same measure for `OC(c1cccnc1)c1cc(F)ccc1F` (centres undefined): 79 to 80 °C; for `Cc1cc(C(F)(F)F)nn1CC(=O)N1CCC(c2csc(NC(=O)Cc3c(F)cccc3Cl)n2)CC1`: 249 to 251 °C; for `CCOC(=O)Cc1ccc(-c2nc(COc3ccc(COc4nn(-c5ccccc5)cc4/C=C\c4cncn4CC)cc3OC)c(C)o2)cc1`: 85 to 86 °C.
Turning to `O=C1c2cccc3cccc(c23)C(=O)N1C1CCC(O)CC1` (centres undefined), the melting point is 240 to 242 °C.
The value for `CC(C)n1cnc2c(Nc3cccc(F)c3)nc(NCCO)nc21` was 142 °C; that for `COc1ccc(C(CC(=O)O)c2ccc(OC)cc2)cc1` was 132 to 134 °C.
The value for `Cc1cc(C)c2c(c1C)OCC2c1cccc(Br)c1` (centres undefined) was 73 to 74 °C; that for `COc1cccc(-c2cc(C3CNC(=O)C3)ccc2OC)c1` (centres undefined) was 137 to 139 °C; that for `CCCCCCCCCc1ccc(Oc2cccc(C#N)c2C#N)cc1` was 74 to 81 °C.
The value for `COc1cc(Nc2c(C#N)cnc3cc(-c4cc5ccccc5o4)sc23)c(Cl)cc1Cl` was 281 to 282 °C.
For `O=C(O)CCN1CCN2c3ccccc3Cc3ccccc3C2C1` (centres undefined), the melting point was 195 to 197 °C.
The same measure for `COc1ccccc1-c1cccc2c1OC(CN)CN2C` (centres undefined): 90 °C.
The value for `CC(=O)NC(C=CCP(=O)(O)O)C(=O)O` (centres undefined) was 155 °C.
The value for `CS(=O)c1c(C#N)nn(-c2ccc(C(F)(F)F)cc2Cl)c1N` (centres undefined) was 146 to 147 °C; that for `N#Cc1cccc(NC(=O)c2ccc3ccccc3c2)c1` was 138 to 140 °C; that for `CC#CCOc1ccc(S(=O)C(C(=O)NO)c2ccc3ccccc3c2)cc1` (centres undefined) was 157 °C.
The compound `CONC(=O)c1cc(OC)cc(Oc2cccc(C(F)(F)F)c2)n1` registered a melting point of 91 to 92 °C.
The same measure for `CC(C)(C)OC(=O)Nc1cc(N2CCC(OCCOC3CCCCO3)CC2)c(-c2ccc(F)cc2)cc1N` (racemic): 56 to 58 °C; for `Cc1ccc(S(=O)(=O)OC[C@H]2OC(=O)N[C@H]2Cc2ccccc2)cc1`: 149 to 150 °C; for `CCCN(CCc1ccccc1)CCc1cccc2[nH]c(=O)[nH]c12`: 176 to 177 °C.
Consider `CC(C)(C)OC(=O)C(C1NC(C(=O)O)C2(CCSCC2)S1)N1C(=O)c2ccccc2C1=O` (centres undefined), for which the melting point was 210 to 212 °C.
The same measure for `Cc1ccc(-c2nc(C(F)(F)F)nn2-c2ccc(S(C)(=O)=O)cc2)cc1`: 176 to 178 °C; for `N#CC(C#N)=C(O)c1ccc(Oc2ccccc2)cc1`: 160 to 162 °C.
The value for `COc1ccc(N2CCN(c3ccc(OC(F)(F)F)cc3)C(=O)C2)c(-c2ccc(N(C)C)cc2)n1` was 116 to 120 °C; that for `C[C@@H]1CN(c2nccc(Oc3ccc(NC(=O)c4cc(F)cc(N5CCOCC5)c4)c4ccccc34)n2)C[C@H](C)O1` was 118 to 120 °C; that for `COc1ccc(C(=O)c2ccc(Oc3ccccc3)cc2)cc1` was 118 to 119 °C.
On to `Cc1ccc(C(=O)Cn2cncn2)cc1`, for which the melting point came to 118 °C.
Turning to `CC(=O)OCc1nccc(OCCCOc2ccc3ncc([N+](=O)[O-])n3n2)c1C`, the melting point fell in the range of 148 to 151 °C.
The same measure for `C1=C(c2ccccc2)CCN(CC2CCC=C(c3ccccc3)C2)C1` (centres undefined): 94 to 100 °C; for `Cc1cccc2c1ccc1c(O)cc(=O)oc12`: 223 to 225 °C.
The value for `COc1cc2c(cc1OC)C(C(=O)O)C(c1ccc(OCc3ccccc3)c(OCc3ccccc3)c1)N(C)C2=O` (centres undefined) was 194 to 196 °C; that for `COc1ccc2c(c1)cc(-c1nnn(Cc3cccc(OCc4ccc5ccccc5n4)c3)n1)c(=O)n2CCCCl` was 150 to 152 °C; that for `CCOC(=O)c1cn2c3c(cc(F)cc3c1=O)C1CCCCC12` (centres undefined) was 97 to 98 °C.
The value for `NNC(=O)c1ncn2c1C1CCN1C(=O)c1sccc1-2` (centres undefined) was 260 to 263 °C; that for `Clc1cc(N2CCCC2)nc(N2CCNCC2)n1` was 77 to 92 °C.
Take `COc1ccc(-n2nc(C(=O)O)c3c2CCCC3)cc1`: the melting point is 233 to 234 °C.
The compound `O=C(/C=C/C=C/c1ccccc1Cl)NCCCCCC(=O)NO` registered a melting point of 129 to 131 °C.
The same measure for `COc1cc(OC)cc(-c2ncoc2-c2ccc(OC)c(O)c2N)c1`: 140 to 143 °C; for `COc1ccc(C(=O)CCCCCl)cc1S(N)(=O)=O`: 135 to 136 °C; for `COc1ccc(-c2cc(-c3ccccc3)c(-c3ccccc3)s2)cc1`: 124 to 126 °C.
The value for `Cc1ccc2cccc(OCc3c(Cl)ccc(S(=O)(=O)n4cccc4)c3Cl)c2n1` was 216 to 217 °C.
`O=C(C[C@@H](CCc1ccccc1)C(=O)O)OCC(Cl)(Cl)Cl` displayed a melting point of 59 to 61 °C.
The value for `COCCOc1ccc(CCCC2OCCO2)c(Oc2ncc(C(F)(F)F)cc2Cl)c1` was 92 to 92.5 °C; that for `O=C(O)C1CCCCC1(O)C(=O)c1ccccc1` (centres undefined) was 165 to 167 °C.
